From PubChem BioAssay (NCI)
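Cells were grown in 96-well plates and exposed to each compound for 48 hours at five concentrations; endpoints were interpolated linearly between bracketing concentrations, or set to the highest concentration if not reached. The concentration for 50% growth inhibition is given as GI50. Definition used: TGI = concentration required for complete inhibition of growth.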

Legend:
Test in all cases: NCI anticancer screen, dose series, 48 h
786-0 renal = test system: 786-0 renal
A498 renal = test system: A498 renal
A549 NSCLC = test system: A549 NSCLC
ACHN renal = test system: ACHN renal
BT-549 breast = test system: BT-549 breast
CAKI-1 renal = test system: CAKI-1 renal
CCRF-CEM leukemia = test system: CCRF-CEM leukemia
COLO 205 colon = test system: COLO 205 colon
DU-145 prostate = test system: DU-145 prostate
EKVX NSCLC = test system: EKVX NSCLC
HCC-2998 colon = test system: HCC-2998 colon
HCT-116 colon = test system: HCT-116 colon
HCT-15 colon = test system: HCT-15 colon
HL-60(TB) leukemia = test system: HL-60(TB) leukemia
HOP-62 NSCLC = test system: HOP-62 NSCLC
HOP-92 NSCLC = test system: HOP-92 NSCLC
HS 578T breast = test system: HS 578T breast
HT29 colon = test system: HT29 colon
IGROV1 ovarian = test system: IGROV1 ovarian
K-562 leukemia = test system: K-562 leukemia
KM12 colon = test system: KM12 colon
LOX IMVI melanoma = test system: LOX IMVI melanoma
M14 melanoma = test system: M14 melanoma
MALME-3M melanoma = test system: MALME-3M melanoma
MCF7 breast = test system: MCF7 breast
MDA-MB-231 breast = test system: MDA-MB-231 breast
MDA-MB-435 = test system: MDA-MB-435
MDA-MB-468 breast = test system: MDA-MB-468 breast
MOLT-4 leukemia = test system: MOLT-4 leukemia
NCI-H226 lung = test system: NCI-H226 lung
NCI-H23 lung = test system: NCI-H23 lung
NCI-H460 lung = test system: NCI-H460 lung
NCI-H522 lung = test system: NCI-H522 lung
NCI/ADR-RES ovarian = test system: NCI/ADR-RES ovarian
OVCAR-3 ovarian = test system: OVCAR-3 ovarian
OVCAR-4 ovarian = test system: OVCAR-4 ovarian
OVCAR-5 ovarian = test system: OVCAR-5 ovarian
OVCAR-8 ovarian = test system: OVCAR-8 ovarian
PC-3 prostate = test system: PC-3 prostate
RPMI-8226 leukemia = test system: RPMI-8226 leukemia
RXF 393 renal = test system: RXF 393 renal
SF-268 CNS = test system: SF-268 CNS
SF-295 CNS = test system: SF-295 CNS
SF-539 CNS = test system: SF-539 CNS
SK-MEL-2 melanoma = test system: SK-MEL-2 melanoma
SK-MEL-28 melanoma = test system: SK-MEL-28 melanoma
SK-MEL-5 melanoma = test system: SK-MEL-5 melanoma
SK-OV-3 ovarian = test system: SK-OV-3 ovarian
SN12C renal = test system: SN12C renal
SNB-19 CNS = test system: SNB-19 CNS
SNB-75 CNS = test system: SNB-75 CNS
SR leukemia = test system: SR leukemia
SW-620 colon = test system: SW-620 colon
T-47D breast = test system: T-47D breast
TK-10 renal = test system: TK-10 renal
U251 CNS = test system: U251 CNS
UACC-257 melanoma = test system: UACC-257 melanoma
UACC-62 melanoma = test system: UACC-62 melanoma
UO-31 renal = test system: UO-31 renal

`Cc1ccc2c(c1)/C(=C/C(=O)c1cc3ccccc3oc1=O)C(=O)N2` showed a GI50 (786-0 renal) of 18.5 µM, a TGI (786-0 renal) of 32.4 µM and a GI50 (A498 renal) greater than 100 µM. The TGI (A498 renal) was greater than 100 µM, the GI50 (A549 NSCLC) was 34.5 µM and the TGI (A549 NSCLC) was greater than 100 µM. The GI50 (ACHN renal) was 9.6 µM, the TGI (ACHN renal) was 21.3 µM and the GI50 (BT-549 breast) was 17.6 µM. The TGI (BT-549 breast) was 33.7 µM, the GI50 (CAKI-1 renal) was 12.2 µM and the TGI (CAKI-1 renal) was 25.3 µM. For the same molecule, the GI50 (CCRF-CEM leukemia) was 6.91 µM, the TGI (CCRF-CEM leukemia) was 56.5 µM and the GI50 (COLO 205 colon) was 17.2 µM. It also gave a TGI (COLO 205 colon) of 32.4 µM, a GI50 (DU-145 prostate) of 17.9 µM and a TGI (DU-145 prostate) of 32.4 µM. For the same molecule, the GI50 (EKVX NSCLC) was 16.2 µM, the TGI (EKVX NSCLC) was 29.9 µM and the GI50 (HCC-2998 colon) was 17.7 µM. The TGI (HCC-2998 colon) was 32.8 µM, the GI50 (HCT-116 colon) was 4.45 µM and the TGI (HCT-116 colon) was 16.8 µM. It also gave a GI50 (HCT-15 colon) of 16.7 µM, a TGI (HCT-15 colon) of 32.8 µM and a GI50 (HL-60(TB) leukemia) of 4.32 µM. The TGI (HL-60(TB) leukemia) was 23.1 µM, the GI50 (HOP-62 NSCLC) was greater than 100 µM and the TGI (HOP-62 NSCLC) was greater than 100 µM. It also gave a GI50 (HOP-92 NSCLC) of 14.5 µM, a TGI (HOP-92 NSCLC) of 28.4 µM and a GI50 (HS 578T breast) of 19.4 µM. It also gave a TGI (HS 578T breast) of 84.6 µM, a GI50 (HT29 colon) of 20.6 µM and a TGI (HT29 colon) of 40.5 µM. It also gave a GI50 (IGROV1 ovarian) of 16.2 µM, a TGI (IGROV1 ovarian) of 29.9 µM and a GI50 (K-562 leukemia) of 3.91 µM. It also gave a TGI (K-562 leukemia) of 48.7 µM, a GI50 (KM12 colon) greater than 100 µM and a TGI (KM12 colon) greater than 100 µM. It also gave a GI50 (LOX IMVI melanoma) of 14.7 µM, a TGI (LOX IMVI melanoma) of 27.9 µM and a GI50 (M14 melanoma) of 15.9 µM. It also gave a TGI (M14 melanoma) of 29.8 µM, a GI50 (MALME-3M melanoma) of 10.6 µM and a TGI (MALME-3M melanoma) of 22.5 µM. The GI50 (MCF7 breast) was 16.4 µM, the TGI (MCF7 breast) was 34 µM and the GI50 (MDA-MB-231 breast) was 15 µM. The TGI (MDA-MB-231 breast) was 28.2 µM, the GI50 (MDA-MB-435) was 17.6 µM and the TGI (MDA-MB-435) was 33 µM. The GI50 (MDA-MB-468 breast) was 10.5 µM, the TGI (MDA-MB-468 breast) was 23.9 µM and the GI50 (MOLT-4 leukemia) was 8.56 µM. It also gave a TGI (MOLT-4 leukemia) of 43.2 µM, a GI50 (NCI-H226 lung) of 18.6 µM and a TGI (NCI-H226 lung) of 46.8 µM. For the same molecule, the GI50 (NCI-H23 lung) was 16.4 µM, the TGI (NCI-H23 lung) was 32.8 µM and the GI50 (NCI-H460 lung) was greater than 100 µM. For the same molecule, the TGI (NCI-H460 lung) was greater than 100 µM, the GI50 (NCI-H522 lung) was 3.26 µM and the TGI (NCI-H522 lung) was 11.5 µM. It also gave a GI50 (NCI/ADR-RES ovarian) of 17.3 µM, a TGI (NCI/ADR-RES ovarian) of 34.4 µM and a GI50 (OVCAR-3 ovarian) of 14.1 µM. The TGI (OVCAR-3 ovarian) was 27.3 µM, the GI50 (OVCAR-4 ovarian) was 17.4 µM and the TGI (OVCAR-4 ovarian) was 33.3 µM. The GI50 (OVCAR-5 ovarian) was 16.7 µM, the TGI (OVCAR-5 ovarian) was 30.3 µM and the GI50 (OVCAR-8 ovarian) was 17.9 µM. It also gave a TGI (OVCAR-8 ovarian) of 34 µM, a GI50 (PC-3 prostate) of 16.1 µM and a TGI (PC-3 prostate) of 36 µM. It also gave a GI50 (RPMI-8226 leukemia) of 22.1 µM, a TGI (RPMI-8226 leukemia) of 63.9 µM and a GI50 (RXF 393 renal) of 15.8 µM. It also gave a TGI (RXF 393 renal) of 29.3 µM, a GI50 (SF-268 CNS) of 68.3 µM and a TGI (SF-268 CNS) greater than 100 µM. It also gave a GI50 (SF-295 CNS) greater than 100 µM, a TGI (SF-295 CNS) greater than 100 µM and a GI50 (SF-539 CNS) of 16.2 µM. The TGI (SF-539 CNS) was 29.7 µM, the GI50 (SK-MEL-2 melanoma) was 21.1 µM and the TGI (SK-MEL-2 melanoma) was 54.7 µM. For the same molecule, the GI50 (SK-MEL-28 melanoma) was 17 µM, the TGI (SK-MEL-28 melanoma) was 30.6 µM and the GI50 (SK-MEL-5 melanoma) was 24.9 µM. The TGI (SK-MEL-5 melanoma) was 80.2 µM, the GI50 (SK-OV-3 ovarian) was greater than 100 µM and the TGI (SK-OV-3 ovarian) was greater than 100 µM. It also gave a GI50 (SN12C renal) of 16.9 µM, a TGI (SN12C renal) of 31.9 µM and a GI50 (SNB-19 CNS) greater than 100 µM. It also gave a TGI (SNB-19 CNS) greater than 100 µM, a GI50 (SNB-75 CNS) of 82.1 µM and a TGI (SNB-75 CNS) greater than 100 µM. The GI50 (SR leukemia) was 7.24 µM, the TGI (SR leukemia) was 74.7 µM and the GI50 (SW-620 colon) was 14.7 µM. It also gave a TGI (SW-620 colon) of 30.4 µM, a GI50 (T-47D breast) of 13 µM and a TGI (T-47D breast) of 34.5 µM. The GI50 (TK-10 renal) was 20 µM, the TGI (TK-10 renal) was 34.7 µM and the GI50 (U251 CNS) was 29.2 µM. For the same molecule, the TGI (U251 CNS) was greater than 100 µM, the GI50 (UACC-257 melanoma) was 15.7 µM and the TGI (UACC-257 melanoma) was 29.6 µM. It also gave a GI50 (UACC-62 melanoma) of 15.5 µM, a TGI (UACC-62 melanoma) of 33 µM and a GI50 (UO-31 renal) of 11.3 µM. For the same molecule, the TGI (UO-31 renal) was 23.4 µM.
